24 compounds from US7265103B2, “Substituted amino isoxazoline derivatives and their use as anti-depressants” (Janssen Pharmaceutica NV., priority 2002, dated 2007) can be followed below.

In one assay the target is T1, hα2C receptor (Homo sapiens, UniProt P18825).
T1 construct: expressed in transfected cells; host or cells: CHO cells
T1 sequence (P18825 1-462): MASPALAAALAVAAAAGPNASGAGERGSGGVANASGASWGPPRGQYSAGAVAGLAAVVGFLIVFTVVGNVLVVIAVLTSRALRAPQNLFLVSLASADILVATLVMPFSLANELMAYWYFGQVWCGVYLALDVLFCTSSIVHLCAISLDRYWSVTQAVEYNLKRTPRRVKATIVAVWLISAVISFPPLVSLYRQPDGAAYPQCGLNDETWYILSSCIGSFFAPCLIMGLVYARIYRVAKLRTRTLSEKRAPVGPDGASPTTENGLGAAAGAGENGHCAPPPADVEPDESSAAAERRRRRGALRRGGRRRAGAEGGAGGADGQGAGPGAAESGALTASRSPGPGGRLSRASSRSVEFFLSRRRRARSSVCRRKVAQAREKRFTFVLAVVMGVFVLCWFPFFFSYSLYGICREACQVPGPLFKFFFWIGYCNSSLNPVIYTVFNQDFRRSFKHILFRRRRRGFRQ
The assay can be described thus: Radioligand binding experiment for α2C-adrenergic receptor ([3H]-raulwolscine). Conditions: CHO cell membranes with human α2C receptor, [3H]raulwolscine 1 nM; read-out: pIC50 α2C (converted). The procedure: (§1) The interaction of the compounds of Formula (I) with hα2-receptors and h5-HT-transporters was assessed in in vitro radioligand binding experiments. In general, a low concentration of a radioligand with a high binding affinity for a particular receptor or transporter is incubated with a sample of a tissue preparation enriched in a particular receptor or transporter or with a preparation of cells expressing cloned human receptors in a buffered medium. During the incubation, the radioligand binds to the receptor or transporter. When equilibrium of binding is reached, the receptor bound radioactivity is separated from the non-bound radioactivity, and the receptor- or transporter-bound activity is counted. The interaction of the test compounds with the receptor is assessed in competition binding experiments. Various concentrations of the test compound are added to the incubation mixture containing the receptor- or transporter preparation and the radioligand. The test compound in proportion to its binding affinity and its concentration inhibits binding of the radioligand. The radioligand used for hα2A, hα2B and hα2C receptor binding was [^3H]-raulwolscine and for the h5-HT transporter was [^3H]paroxetine.
(§2) CHO cells, stabile transfected with human adrenergic-α2A-, -α2B or α2C receptor cDNA, were cultured in Dulbecco's Modified Eagle's Medium (DMEM)/Nutrient mixture Ham's F12 (ratio 1:1)(Gibco, Gent-Belgium) supplemented with 10% heat inactivated fetal calf serum (Life Technologies, Merelbeke-Belgium) and antibiotics (100 IU/ml penicillin G, 100 μg/ml streptomycin sulphate, 110 μg/ml pyruvic acid and 100 μg/ml L-glutamine). One day before collection, cells were induced with 5 mM sodiumbutyrate. Upon 80-90% of confluence, cells were scraped in phosphate buffered saline without Ca^2+ and Mg^2+ and collected by centrifugation at 1500×g for 10 min. The cells were homogenised in Tris-HCl 50 mM using an Ultraturrax homogenizer and centrifuged for 10 min at 23,500×g. The pellet was washed once by resuspension and rehomogenization and the final pellet was resuspended in Tris-HCl, divided in 1 ml aliquots and stored at −70° C.
(§3) Membranes were thawed and re-homogenized in incubation buffer (glycylglycine 25 mM, pH 8.0). In a total volume of 500 μl, 2-10 μg protein was incubated with [^3H]raulwolscine (NET-722) (New England Nuclear, USA) (1 nM final concentration) with or without competitor for 60 min at 25° C. followed by rapid filtration over GF/B filter using a Filtermatel 96 harvester (Packard, Meriden, Conn.). Filters were rinsed extensively with ice-cold rinsing buffer (Tris-HCl 50 mM pH 7.4). Filter-bound radioactivity was determined by scintillation counting in a Topcount (Packard, Meriden, Conn.) and results were expressed as counts per minute (cpm). Non-specific binding was determined in the presence of 1 μM oxymetazoline for hα2A- and hα2B receptors and 1 μM spiroxatrine for hα2C receptors.
(§4) Data from assays in the presence of compound were calculated as a percentage of total binding measured in the absence of test compound. Inhibition curves, plotting percent of total binding versus the log value of the concentration of the test compound, were automatically generated, and sigmoidal inhibition curves were fitted using non-linear regression. The pIC50 values of test compounds were derived from individual curves.

The next assay concerns the target T2, hα2A receptor (Homo sapiens, UniProt P08913).
T2 construct: expressed in transfected cells; host or cells: CHO cells
T2 sequence (P08913 1-465): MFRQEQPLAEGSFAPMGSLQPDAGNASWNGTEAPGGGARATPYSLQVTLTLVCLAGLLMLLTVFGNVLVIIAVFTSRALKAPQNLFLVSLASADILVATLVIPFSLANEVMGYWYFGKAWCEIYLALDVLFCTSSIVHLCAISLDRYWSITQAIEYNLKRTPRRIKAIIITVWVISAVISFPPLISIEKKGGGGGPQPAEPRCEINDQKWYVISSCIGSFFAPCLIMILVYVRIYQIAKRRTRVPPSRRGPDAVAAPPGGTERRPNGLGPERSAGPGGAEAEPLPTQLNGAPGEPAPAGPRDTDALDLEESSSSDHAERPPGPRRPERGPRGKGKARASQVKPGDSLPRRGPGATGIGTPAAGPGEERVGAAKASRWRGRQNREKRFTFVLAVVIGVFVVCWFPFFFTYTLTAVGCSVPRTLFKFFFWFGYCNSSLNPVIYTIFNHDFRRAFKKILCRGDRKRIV
The assay can be described thus: Radioligand binding experiment for α2A-adrenergic receptor ([3H]-raulwolscine). The note with it: CHO cell membranes with human α2A receptor, [3H]raulwolscine 1 nM; read-out: pIC50 α2A (converted). The procedure:
as §1, §2, §3, §4

In another assay the target is T3, h5-HT transporter (Homo sapiens, UniProt P31645).
T3 construct: Human platelet membranes (Oceanix Biosciences Corporation, Hanover, Md., USA) were thawed; tissue Oceanix Biosciences Corporation; host or cells: human platelet membranes
T3 sequence (P31645 whole entry): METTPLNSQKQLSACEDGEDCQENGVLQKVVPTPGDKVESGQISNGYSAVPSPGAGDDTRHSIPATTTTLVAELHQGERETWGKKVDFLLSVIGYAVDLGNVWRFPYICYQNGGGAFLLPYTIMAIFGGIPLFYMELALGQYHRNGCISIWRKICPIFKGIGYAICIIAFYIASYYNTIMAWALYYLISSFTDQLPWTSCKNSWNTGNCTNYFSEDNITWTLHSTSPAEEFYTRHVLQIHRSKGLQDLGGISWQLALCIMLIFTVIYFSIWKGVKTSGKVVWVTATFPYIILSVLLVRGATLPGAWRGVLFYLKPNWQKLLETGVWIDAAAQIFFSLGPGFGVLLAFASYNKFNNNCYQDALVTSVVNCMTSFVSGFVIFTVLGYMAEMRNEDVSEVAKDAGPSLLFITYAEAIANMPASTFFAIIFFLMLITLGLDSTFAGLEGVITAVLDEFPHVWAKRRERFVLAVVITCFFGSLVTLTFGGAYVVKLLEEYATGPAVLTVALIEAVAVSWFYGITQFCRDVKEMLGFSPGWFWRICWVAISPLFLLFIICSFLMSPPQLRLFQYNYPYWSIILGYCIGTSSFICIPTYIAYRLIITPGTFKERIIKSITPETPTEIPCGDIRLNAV
The assay can be described thus: Radioligand binding experiment for 5-HT transporter ([3H]paroxetine). Conditions: human platelet membranes, [3H]paroxetine 0.5 nM. The procedure:
as §1
Human platelet membranes (Oceanix Biosciences Corporation, Hanover, Md., USA) were thawed, diluted in buffer (Tris-HCl 50 mM, 120 mM NaCl and 5 mM KCl) and quickly (max 3 s) homogenised with an Ultraturrax homogenizer. In a total volume of 250 μL, 50-100 μg protein was incubated with [^3H]paroxetine (NET-869) (New England Nuclear, USA) (0.5 nM final concentration) with or without competitor for 60 min at 25° C. Incubation was stopped by rapid filtration of the incubation mixture over GF/B filters, pre-wetted with 0.1% polyethyleneamine, using a Filtermatel 96 harvester (Packard, Meriden, Conn.). Filters were rinsed extensively with ice-cold buffer and radioactivity on the filters was counted in a Topcount liquid scintillation counter (Packard, Meriden, Conn.). Data were expressed as cpm. Imipramine (at 1 μM final concentration) was used to determine the non-specific binding.
as §4

In the case of `COc1cc2c(cc1N1CCC(C)CC1)OCC1C2=NOC1CN1CCN(CC(C)=Cc2ccc(F)cc2)CC1` (stereo not drawn) [Compound 103], the IC50 at hα2C receptor is 0.0631 µM; at hα2A receptor, 0.0794 µM; on h5-HT transporter, 0.126 µM.

For the compound `CCNC(=O)N1CCOc2cc3c(cc21)OCC1C3=NOC1CN1CCN(C/C(C)=C/c2ccccc2)CC1` (stereo not drawn) [Compound 16], the IC50 at hα2C receptor was 0.000794 µM; at hα2A receptor, 0.00794 µM; at h5-HT transporter, 0.00794 µM.

Regarding `COc1cc2c(cc1N1CCCC1C)OCC1C2=NOC1CN1CCN(CC(C)=Cc2ccc(F)cc2)CC1` (stereo not drawn) [Compound 101], the IC50 at hα2C receptor is 0.0316 µM; on hα2A receptor, 0.0398 µM; at h5-HT transporter it was 0.158 µM.

On to `COc1cc2c(cc1NC(C)=O)OCC1C2=NOC1CN1CCN(C/C(C)=C/c2ccccc2)CC1` (stereo not drawn) [Compound 10], for which the IC50 at hα2C receptor was 0.00126 µM; on hα2A receptor it was 0.00398 µM; at h5-HT transporter it was 0.0631 µM.

As to `CC(=Cc1ccc(F)cc1)CN1CCN(CC2ON=C3c4ccc(NCCN5CCOCC5)cc4OCC32)CC1` (stereo not drawn) [Compound 30], the results for the IC50 on hα2C receptor, at hα2A receptor and at h5-HT transporter were 0.00398 µM, 0.0501 µM and 0.01 µM, respectively.

On to `CCC(CC)Nc1cc2c(cc1OC)C1=NOC(CN3CCN(CC(C)=Cc4ccc(F)cc4)CC3)C1CO2` (stereo not drawn) [Compound 98], for which the figures for the IC50 at hα2C receptor, on hα2A receptor and on h5-HT transporter were 0.1 µM, 0.126 µM and 0.251 µM, respectively.

As to `CC(=Cc1ccccc1)CN1CCN(CC2ON=C3c4ccc(N(C)Cc5ccccc5)cc4OCC32)CC1` (stereo not drawn) [Compound 48], the IC50 on hα2C receptor was 0.0316 µM; at hα2A receptor, 0.0398 µM; at h5-HT transporter, 0.158 µM.

Regarding `CC(=Cc1ccccc1)CN1CCN(CC2ON=C3c4ccc(N(C)CCO)cc4OCC32)CC1` (single isomer, unassigned) [Compound 33], the IC50 at hα2C receptor is 0.0398 µM; at hα2A receptor it was 0.631 µM; at h5-HT transporter it was 0.0126 µM.

On to `CCNc1cc2c(cc1OC)C1=NOC(CN3CCN(CC(C)=Cc4ccc(F)cc4)CC3)C1CO2` (stereo not drawn) [Compound 105], for which the IC50 at hα2C receptor is 0.0316 µM; on hα2A receptor, 0.0501 µM; on h5-HT transporter, 0.02 µM.

`CC(=Cc1ccc(F)cc1)CN1CCN(CC2ON=C3c4ccc(N(C)CCNC(C)C(C)C)cc4OCC32)CC1` (stereo not drawn) [Compound 110]: the IC50 at hα2C receptor was 0.00501 µM; on hα2A receptor, 0.0398 µM; on h5-HT transporter, 0.00501 µM.

Take `CC(=Cc1ccc(F)cc1)CN1CCN(CC2ON=C3c4ccc(N(C)CCOC(=O)C5CCC5)cc4OCC32)CC1` (stereo not drawn) [Compound 108]: the IC50 on hα2C receptor is 0.0501 µM; at hα2A receptor, 0.2 µM; on h5-HT transporter it was 0.0794 µM.

With `COc1cc2c(cc1N(C)CCN(C)C)OCC1C2=NOC1CN1CCN(C/C(C)=C/c2ccccc2)CC1` (stereo not drawn) [Compound 11], the IC50 at hα2C receptor was 0.00158 µM; at hα2A receptor, 0.002 µM; on h5-HT transporter, 0.00316 µM.

As for `CC(=Cc1ccccc1)CN1CCN(CC2ON=C3c4ccc(N(C)CCO)cc4OCC32)CC1` (single isomer, unassigned) [Compound 34], the IC50 at hα2C receptor is 0.000398 µM; at hα2A receptor, 0.002 µM; at h5-HT transporter, 0.0631 µM.

`CC(=Cc1ccc(F)cc1)CN1CCN(CC2ON=C3c4ccc(N(C)CCOC(=O)C5CC5)cc4OCC32)CC1` (stereo not drawn) [Compound 109]: the IC50 at hα2C receptor is 0.0316 µM; at hα2A receptor, 0.158 µM; on h5-HT transporter it was 0.0398 µM.

As for `CC(=Cc1ccc(F)cc1)CN1CCN(CC2ON=C3c4ccc(NCCO)cc4OCC32)CC1` (stereo not drawn) [Compound 37], the IC50 at hα2C receptor was 0.00501 µM; on hα2A receptor, 0.00316 µM; at h5-HT transporter, 0.0631 µM.

For the compound `CC(=Cc1ccc(F)cc1)CN1CCN(CC2ON=C3c4ccc(N5CC=CCC5)cc4OCC32)CC1` (stereo not drawn) [Compound 135], the values for the IC50 at hα2C receptor, at hα2A receptor and on h5-HT transporter were 0.0251 µM, 0.0398 µM and 0.0794 µM, respectively.

`C/C(=C\c1ccccc1)CN1CCN(CC2ON=C3c4ccc(NC(=O)[C@H]5CCCN5)cc4OCC32)CC1` (stereo partly drawn) [Compound 56]: the figures for the IC50 at hα2C receptor, on hα2A receptor and on h5-HT transporter were 0.000501 µM, 0.00316 µM and 0.0126 µM, respectively.

As for `CC(=Cc1ccccc1)CN1CCN(CC2ON=C3c4ccc(N(C)CCO)cc4OCC32)CC1` (stereo not drawn) [Compound 31], the values for the IC50 on hα2C receptor, at hα2A receptor and on h5-HT transporter were 0.00126 µM, 0.00126 µM and 0.0251 µM, respectively.

Take `CCC(C)(C)NCCN(C)c1ccc2c(c1)OCC1C2=NOC1CN1CCN(CC(C)=Cc2ccc(F)cc2)CC1` (stereo not drawn) [Compound 120]: the IC50 was 0.00631 µM on hα2C receptor, 0.0398 µM at hα2A receptor and 0.00251 µM at h5-HT transporter.

For `CC(=Cc1ccc(F)cc1)CN1CCN(CC2ON=C3c4ccc(N(C)CCN5CCC5)cc4OCC32)CC1` (stereo not drawn) [Compound 123], the IC50 on hα2C receptor was 0.00316 µM; at hα2A receptor, 0.01 µM; at h5-HT transporter it was 0.00794 µM.

For the compound `COc1cc2c(cc1Nc1ccncc1)OCC1C2=NOC1CN1CCN(CC(C)=Cc2ccc(F)cc2)CC1` (stereo not drawn) [Compound 100], the IC50 on hα2C receptor is 0.00501 µM; on hα2A receptor, 0.01 µM; on h5-HT transporter, 0.01 µM.

With `CC(=Cc1ccc(F)cc1)CN1CCN(CC2ON=C3c4ccc(N(C)CCOC(=O)CC(C)(C)C)cc4OCC32)CC1` (stereo not drawn) [Compound 117], the IC50 on hα2C receptor was 0.126 µM; on hα2A receptor, 0.251 µM; on h5-HT transporter, 0.1 µM.

Take `COc1cc2c(cc1NCC(C)C)OCC1C2=NOC1CN1CCN(CC(C)=Cc2ccc(F)cc2)CC1` (stereo not drawn) [Compound 116]: the figures for the IC50 at hα2C receptor, at hα2A receptor and at h5-HT transporter were 0.158 µM, 0.2 µM and 0.0794 µM, respectively.

In the case of `CC(=Cc1ccc(F)cc1)CN1CCN(CC2ON=C3c4ccc(N5CCC(C)C5=O)cc4OCC32)CC1` (stereo not drawn) [Compound 139], the IC50 was 0.00794 µM at hα2C receptor, 0.0158 µM on hα2A receptor and 0.126 µM at h5-HT transporter.
